This is an account of results in US6809065B2, “Herbicide containing substituted pyrazole derivative as active ingredient” (SDS Biotech K.K., priority 2001, dated 2004).

In series [1] the test system is Digitaria adscendens. Description: Upland field foliage treatment (Test Example 1). It counts as in vivo. The conditions noted are these: foliage treatment 14th day after sowing, wettable powder, 1 kg active ingredient per hectare, evaluated 21st day after application. The procedure, abridged:
(§1)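 Foliage application took place two weeks after sowing, at an active-ingredient rate of 1 kg/ha from a water-diluted wettable powder. Rating followed on the 21st day after application, using an index scale on which crop values rise as injury increases.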

Series [2] deals with Chenopodium album. Description: Upland field foliage treatment (Test Example 1). Format: in vivo. The note with it: foliage treatment 14th day after sowing, wettable powder, 1 kg active ingredient per hectare, evaluated 21st day after application. An outline of the steps:
as §1

In series [3] the test system is Stellaria media. Description: Upland field foliage treatment (Test Example 1). It counts as in vivo. The conditions noted are these: foliage treatment 14th day after sowing, wettable powder, 1 kg active ingredient per hectare, evaluated 21st day after application. The procedure, abridged:
as §1

In series [4] the test system is Setaria viridis. Description: Upland field foliage treatment (Test Example 1). Format: in vivo. The conditions noted are these: foliage treatment 14th day after sowing, wettable powder, 1 kg active ingredient per hectare, evaluated 21st day after application. The procedure, abridged:
as §1

In series [5] the test system is Digitaria adscendens. Description: Upland soil treatment (Test Example 2). It counts as in vivo. The note with it: soil surface treatment next day after sowing, wettable powder, 1 kg active ingredient per hectare, evaluated 21st day after application. An outline of the steps: (§2)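 Upland soil in pots was sown with weed and crop seeds, covered with about 1 cm soil, and next day sprayed on the surface with wettable-powder formulation at 1 kg active ingredient per hectare. Effects were scored by index on day 21; higher index means stronger weed control, lower index means better crop safety.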

The subject of series [6] is Chenopodium album. Description: Upland soil treatment (Test Example 2). Format: in vivo. The note with it: soil surface treatment next day after sowing, wettable powder, 1 kg active ingredient per hectare, evaluated 21st day after application. An outline of the steps:
as §2

Series [7] deals with Stellaria media. Description: Upland soil treatment (Test Example 2). Format: in vivo. The conditions noted are these: soil surface treatment next day after sowing, wettable powder, 1 kg active ingredient per hectare, evaluated 21st day after application. The procedure, abridged:
as §2

Series [8] has as its system Setaria viridis. Description: Upland soil treatment (Test Example 2). The note with it: soil surface treatment next day after sowing, wettable powder, 1 kg active ingredient per hectare, evaluated 21st day after application. It counts as in vivo. An outline of the steps: as §2
A further series has as its system Monochoria vaginalis. Description: Paddy field treatment (Test Example 3). Format: in vivo. The conditions noted are these: paddy pot, submerged 4 cm, dropped on water surface 10th day after transplantation, 1 kg active ingredient per hectare, evaluated 21st day. The procedure, abridged:
(§3)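 Index scores for herbicidal effect were read 21 days after treatment, higher meaning stronger effect. Treatment was a water-diluted wettable powder dropped onto flooded paddy soil at 1 kg active ingredient per hectare, 10 days after rice transplantation.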

In the next series the test system is Scirpus juncoides. Description: Paddy field treatment (Test Example 3). The note with it: paddy pot, submerged 4 cm, dropped on water surface 10th day after transplantation, 1 kg active ingredient per hectare, evaluated 21st day. It counts as in vivo. The procedure, abridged: as §3
In the next series the test system is Ammannia multiflora. Description: Paddy field treatment (Test Example 3). Format: in vivo. The conditions noted are these: paddy pot, submerged 4 cm, dropped on water surface 10th day after transplantation, 1 kg active ingredient per hectare, evaluated 21st day. An outline of the steps: as §3
In series [9] the test system is soybean (Glycine max). Description: Upland field foliage treatment (Test Example 1), crop. It counts as in vivo. The note with it: foliage treatment 14th day after sowing, 1 kg active ingredient per hectare, evaluated 21st day, lower index = higher safety. An outline of the steps:
as §1

Series [10] relates to wheat (Triticum aestivum). The series is described as above. It counts as in vivo. The conditions noted are these: foliage treatment 14th day after sowing, 1 kg active ingredient per hectare, evaluated 21st day, lower index = higher safety. An outline of the steps:
as §1

Series [11] relates to rice (Oryza sative, variety: Koshihikari). Description: Paddy field treatment (Test Example 3), crop. It counts as in vivo, Oryza sativa. The note with it: transplanted rice two-leaf period, water surface treatment 10th day after transplantation, 1 kg active ingredient per hectare, evaluated 21st day, lower index = higher safety. An outline of the steps:
as §3

Series [12] has as its system soybean (Glycine max). Description: Upland soil treatment (Test Example 2), crop. The note with it: soil surface treatment next day after sowing, 1 kg active ingredient per hectare, evaluated 21st day, lower index = higher safety. It counts as in vivo. An outline of the steps: as §2
Series [13] concerns wheat (Triticum aestivum). Description: Upland soil treatment (Test Example 2), crop. It counts as in vivo. The note with it: soil surface treatment next day after sowing, 1 kg active ingredient per hectare, evaluated 21st day, lower index = higher safety. An outline of the steps:
as §2

Another series has as its system Echinochloa spp. Description: Paddy field treatment (Test Example 3). It counts as in vivo, Echinochloa crusgalli. The note with it: paddy pot, submerged 4 cm, dropped on water surface 10th day after transplantation, 1 kg active ingredient per hectare, evaluated 21st day. The procedure, abridged: as §3

On to `CCc1c(Br)c(-c2ccccc2)nn1CC(=COC)C(=O)OC` [Compound 43], for which the “Herbicidal activity Digitaria adscendens” value was 4 (herbicidal effect of not less than 70% by weight and less than 90% by weight) in the series with Digitaria adscendens [1]; 4 (herbicidal effect of not less than 70% by weight and less than 90% by weight) in the series with Digitaria adscendens [5]. Besides, the “Herbicidal activity Chenopodium album” value in the series with Chenopodium album [2] was 5 (herbicidal effect of not less than 90% by weight); in the series on Chenopodium album [6], 4 (herbicidal effect of not less than 70% by weight and less than 90% by weight). In addition, the “Herbicidal activity Stellaria media” value with Stellaria media [3] was 5 (herbicidal effect of not less than 90% by weight); in the series on Stellaria media [7] it was 4 (herbicidal effect of not less than 70% by weight and less than 90% by weight). For the same compound, the “Herbicidal activity Setaria viridis” value with Setaria viridis [4] is 4 (herbicidal effect of not less than 70% by weight and less than 90% by weight); in the series with Setaria viridis [8] it was 4 (herbicidal effect of not less than 70% by weight and less than 90% by weight). In addition, the “Herbicidal activity Monochoria vaginalis” value with Monochoria vaginalis was 3 (herbicidal effect of not less than 50% by weight and less than 70% by weight). Further, the “Herbicidal activity Scirpus juncoides” value in the series with Scirpus juncoides was 4 (herbicidal effect of not less than 70% by weight and less than 90% by weight). Besides, the “Herbicidal activity Ammannia multiflora” value in the series with Ammannia multiflora is 3 (herbicidal effect of not less than 50% by weight and less than 70% by weight). Moreover, the “Herbicidal activity Glycine max” value in the series on soybean (Glycine max) [9] was 0 (herbicidal effect of not less than 0% by weight and less than 10% by weight); in the series on soybean (Glycine max) [12] it was 0 (herbicidal effect of not less than 0% by weight and less than 10% by weight). The “Herbicidal activity Triticum aestivum” value in [10] is 0 (herbicidal effect of not less than 0% by weight and less than 10% by weight); in [13] it was 0 (herbicidal effect of not less than 0% by weight and less than 10% by weight). Further, the “Herbicidal activity Oryza sativa” value in [11] is 0 (herbicidal effect of not less than 0% by weight and less than 10% by weight). The “Herbicidal activity Echinochloa spp.” value in the series with Echinochloa spp. is 3 (herbicidal effect of not less than 50% by weight and less than 70% by weight).

On to `COC=C(Cn1nc(-c2ccc(Cl)cc2Cl)c(Br)c1C)C(=O)OC` [Compound 30], for which the “Herbicidal activity Digitaria adscendens” value in the series on Digitaria adscendens [1] and with Digitaria adscendens [5] was 5 (herbicidal effect of not less than 90% by weight) throughout. Moreover, the “Herbicidal activity Chenopodium album” value in the series with Chenopodium album [2] was 5 (herbicidal effect of not less than 90% by weight); in the series with Chenopodium album [6], 4 (herbicidal effect of not less than 70% by weight and less than 90% by weight). Further, the “Herbicidal activity Stellaria media” value is 5 (herbicidal effect of not less than 90% by weight) in the series on Stellaria media [3]; 4 (herbicidal effect of not less than 70% by weight and less than 90% by weight) in the series with Stellaria media [7]. Moreover, the “Herbicidal activity Setaria viridis” value is 4 (herbicidal effect of not less than 70% by weight and less than 90% by weight) with Setaria viridis [4]; 5 (herbicidal effect of not less than 90% by weight) with Setaria viridis [8]. Also, the “Herbicidal activity Monochoria vaginalis” value in the series on Monochoria vaginalis is recorded as 5 (herbicidal effect of not less than 90% by weight). Moreover, the “Herbicidal activity Scirpus juncoides” value in the series with Scirpus juncoides was 4 (herbicidal effect of not less than 70% by weight and less than 90% by weight). Further, the “Herbicidal activity Ammannia multiflora” value in the series on Ammannia multiflora was 5 (herbicidal effect of not less than 90% by weight). Moreover, the “Herbicidal activity Glycine max” value in the series on soybean (Glycine max) [9] is 1 (herbicidal effect of not less than 10% by weight and less than 30% by weight); with soybean (Glycine max) [12], 0 (herbicidal effect of not less than 0% by weight and less than 10% by weight). For the same compound, the “Herbicidal activity Triticum aestivum” value in series [10] was 0 (herbicidal effect of not less than 0% by weight and less than 10% by weight); in [13], 0 (herbicidal effect of not less than 0% by weight and less than 10% by weight). Moreover, the “Herbicidal activity Oryza sativa” value in series [11] is 0 (herbicidal effect of not less than 0% by weight and less than 10% by weight). In addition, the “Herbicidal activity Echinochloa spp.” value with Echinochloa spp. is 4 (herbicidal effect of not less than 70% by weight and less than 90% by weight).

As for `COC=C(Cn1nc(-c2c(Cl)cccc2Cl)c(Cl)c1C)C(=O)OC` [Compound 23], the “Herbicidal activity Digitaria adscendens” value in the series with Digitaria adscendens [1] is 4 (herbicidal effect of not less than 70% by weight and less than 90% by weight); in the series on Digitaria adscendens [5] it was 4 (herbicidal effect of not less than 70% by weight and less than 90% by weight). Besides, the “Herbicidal activity Chenopodium album” value with Chenopodium album [2] is 4 (herbicidal effect of not less than 70% by weight and less than 90% by weight); in the series on Chenopodium album [6], 4 (herbicidal effect of not less than 70% by weight and less than 90% by weight). For the same compound, the “Herbicidal activity Stellaria media” value with Stellaria media [3] is 5 (herbicidal effect of not less than 90% by weight); in the series on Stellaria media [7], 4 (herbicidal effect of not less than 70% by weight and less than 90% by weight). Moreover, the “Herbicidal activity Setaria viridis” value with Setaria viridis [4] is 4 (herbicidal effect of not less than 70% by weight and less than 90% by weight); in the series with Setaria viridis [8], 4 (herbicidal effect of not less than 70% by weight and less than 90% by weight). Moreover, in the series on Monochoria vaginalis, the “Herbicidal activity Monochoria vaginalis” value was 4 (herbicidal effect of not less than 70% by weight and less than 90% by weight). For the same compound, in the series on Scirpus juncoides, the “Herbicidal activity Scirpus juncoides” value is 3 (herbicidal effect of not less than 50% by weight and less than 70% by weight). In addition, the “Herbicidal activity Ammannia multiflora” value with Ammannia multiflora is given as 5 (herbicidal effect of not less than 90% by weight). Moreover, the “Herbicidal activity Glycine max” value in the series on soybean (Glycine max) [9] is 0 (herbicidal effect of not less than 0% by weight and less than 10% by weight); with soybean (Glycine max) [12], 0 (herbicidal effect of not less than 0% by weight and less than 10% by weight). Besides, the “Herbicidal activity Triticum aestivum” value was 0 (herbicidal effect of not less than 0% by weight and less than 10% by weight) in series [10]; 0 (herbicidal effect of not less than 0% by weight and less than 10% by weight) in series [13]. Besides, the “Herbicidal activity Oryza sativa” value in series [11] was 0 (herbicidal effect of not less than 0% by weight and less than 10% by weight). For the same compound, the “Herbicidal activity Echinochloa spp.” value in the series with Echinochloa spp. was 3 (herbicidal effect of not less than 50% by weight and less than 70% by weight).
